Measurements as given in US8252522B2, “Species detection methods and systems” (The Regents of the University of California, priority 2007, dated 2012).

Experiments:
[1] = system: different bacteria (E. coli and two bacilli)
Experimental: Kinetics of fluorescence enhancement of 64 μM THIA in the presence of different bacteria (10^6 cell/mL) in TRIS buffer, pH=8.5 (λex=420 nm, λem=470 nm). The time constants, τ, are inversely proportional to the rate constants, k=1/τ. The biexponential data fits assume pseudo-first-order processes. At about 50 s into the data acquisition, the bacteria are injected and into a stirred solution of the dye.
To simplify the kinetic analysis, the assays can be conducted under two types of extreme conditions that will assure that the first step, k1, can be approximated to pseudo-first-order process: (1) the dye is in excess to the binding sites on the bacterial surface; or (2) the binding sites on the bacterial surface are in excess to the dye. Under such conditions, the kinetics of fluorescence enhancement should manifest bi- (or multi-) exponential rises:
[formula] where FM is the maximum fluorescence intensity (the saturation level on the curves); dt is the injection time; Fi are the pre-exponential coefficients; and ti are the time constants for the various processes: τi=1/ki. […]
The samples are illuminated at a region where the staining dye absorbs and the emission is monitored (the fluorescence intensity is recorded every second) at the wavelength maximum of the fluorescence spectrum of the dye (FIG. 2). […] This plateau emission maximum is what is measured with the regular staining procedures. […]

[2] = system: bacterial spores vs vegetative bacteria; settings: microfluidic device, detection about few seconds after mixing
Experimental: (§1) A solution of a benzothiazole dye, THIA, was used (FIG. 1a), in a continuous-flow microfluidic device for detection of bacterial species, as described for a terbium (III) different emission assay.
(§2) For the steady-state experiments the dye is mixed with the samples and allowed to incubate for five minutes. In the microfluidic device, however, the dye is mixed with the bacterial sample and carried to the area for emission detection in about few seconds after the mixing.

[3] = system: bacterial spores; settings: steady-state, incubated for five minutes
Experimental: as §1, §2

[4] = system: bacterial spores; settings: within the duration of the mixing

CCN1/C(=C/c2sc3ccccc3[n+]2CC)Sc2ccccc21.[I-] [THIA, 3,3′-Diethylthiacyanine iodide]
response to staining ([1]; all three species): positive response
duration of the emission intensity increase after initial mixing ([1]; vegetative bacteria): continues to increase for several minutes
signal from bacterial spores relative to signal from vegetative bacteria [2]: about 13 times
increase in emission intensity in the presence of bacterial spores [3]: about an order of magnitude increase
time of emission enhancement by bacterial spores [4]: within a second or less
